This passage reports EC50 and Kd results from ChEMBL document CHEMBL3046373, “Optimised expression and spectral analysis of the target enzyme CYP51 from Penicillium digitatum with possible new DMI fungicides” (Pest Manag Sci, 2010).

One assay deals with Penicillium digitatum. In words: Antifungal activity against Penicillium digitatum after 48 hr. In kind it is functional, organism-based.
In assay [1] the target is T1, Cytochrome P450 14alpha-demethylase (Penicillium digitatum, UniProt A1XG20).
T1 sequence (A1XG20 whole entry): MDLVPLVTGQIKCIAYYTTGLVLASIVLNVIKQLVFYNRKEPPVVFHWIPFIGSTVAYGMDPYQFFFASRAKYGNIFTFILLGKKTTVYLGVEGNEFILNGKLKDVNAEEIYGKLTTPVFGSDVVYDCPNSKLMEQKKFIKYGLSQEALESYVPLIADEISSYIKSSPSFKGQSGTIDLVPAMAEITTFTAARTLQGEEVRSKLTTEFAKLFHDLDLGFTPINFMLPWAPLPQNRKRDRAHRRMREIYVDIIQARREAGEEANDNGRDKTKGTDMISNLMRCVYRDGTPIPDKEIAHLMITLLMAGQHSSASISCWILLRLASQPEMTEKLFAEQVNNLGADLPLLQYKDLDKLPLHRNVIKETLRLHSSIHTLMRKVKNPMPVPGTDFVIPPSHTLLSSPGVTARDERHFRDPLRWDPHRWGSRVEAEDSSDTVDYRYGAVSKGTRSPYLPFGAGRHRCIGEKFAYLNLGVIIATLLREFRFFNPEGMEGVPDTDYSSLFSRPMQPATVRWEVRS
Kind of assay: Binding affinity to Penicillium digitatum recombinant N-terminal-His6 tagged CYP51 expressed in Escherichia coli BL21(DE3) by spectrophotometric analysis.

Values after ≈ are worked out from the molar mass of the structure shown.

`Nc1nnc(CSCc2ccc(Cl)cc2)s1` displayed an EC50 in the assay on Penicillium digitatum of 7.88 µg/mL (≈ 29 µM). Also, the Kd in assay [1] was 642 nM.
The corresponding values for `c1cc2c3c(cccc3c1)NC(c1cnc[nH]1)N2` are 38.6 µg/mL (≈ 163 µM) and 990 nM.
In the assay with Penicillium digitatum, `NNc1ncncc1-c1ccccc1` [5-PHENYLPYRIMIDIN-4-YLHYDRAZINE] showed an EC50 of 10.1 µg/mL (≈ 54.2 µM). Moreover, the Kd in assay [1] turned out to be 658 nM.
With `COc1ccc2c(c1)SCC(N)=N2` [7-METHOXY-2H-BENZO[B][1,4]THIAZINE-3-AMINE], the EC50 in the assay on Penicillium digitatum turned out to be 1.18 µg/mL (≈ 6.07 µM). Further, the Kd in assay [1] amounted to 268 nM.
For `CC(C)(C)C(O)/C(=C\c1ccc(Cl)cc1Cl)n1cncn1` (stereo not given) [DINICONAZOLE], the Kd in assay [1] came to 120 nM.
Turning to `CC(C)(C)C(=O)C(Oc1ccc(Cl)cc1)n1cncn1` (stereo not given) [TRIADIMEFON], the equilibrium dissociation constant (Kd) in assay [1] worked out at 420 nM.
